Assay results: ChEMBL document CHEMBL1201862, “PubChem BioAssay data set” (2004)
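Values below derive from 48-hour exposures of cells grown in 96-well plates, with endpoints linearly interpolated between the two concentrations bracketing the appropriate inhibition level. Here, GI50 denotes the concentration required for 50% inhibition of growth.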 Calls of active or inactive are those of the source. Cut-off read from the data, not from the text of the source: active = GI50 up to about 1.1 µM and inactive = higher.

How the values were obtained:
Assay in all cases: DTP human tumour cell line panel, 48 h
[1] = system: MDA-MB-231
[2] = system: PC-3
[3] = system: CCRF-CEM
[4] = system: UACC-257
[5] = system: OVCAR-5
[6] = system: NCI-H460
[7] = system: EKVX
[8] = system: MDA-MB-435
[9] = system: SW-620
[10] = system: OVCAR-8
[11] = system: Malme-3M
[12] = system: SK-OV-3
[13] = system: SF-295
[14] = system: NCI-H23
[15] = system: ACHN
[16] = system: HCT-116
[17] = system: COLO 205
[18] = system: OVCAR-3
[19] = system: HL-60
[20] = system: DU-145

Measured: GI50

CCCCCCCCCCCCCCCCCCNC(=O)C(N)Cc1ccc(OCc2ccccc2)cn1 (stereo not given)
inactive: [1] 20.9 µM | [2] 14.2 µM | [3] 13.5 µM | [4] 19.1 µM | [5] 21.1 µM | [6] 15.4 µM | [7] 22.6 µM | [8] 17.3 µM | [9] 23.2 µM | [10] 15.8 µM | [11] 20.6 µM | [12] 22.7 µM | [13] 24 µM | [14] 16.8 µM | [15] 24.1 µM | [16] 21.5 µM | [17] 15.4 µM | [18] 25.4 µM | [19] 15.7 µM | [20] 21.3 µM
